# Results taken from paper PMC11513920, “Building Metabolically Stable and Potent Anti-HIV Thioether-Lipid Analogues of Tenofovir Exalidex: A thorough Pharmacological Analysis” (Journal of Medicinal Chemistry, 2024).
# “And” between values parts separate entries of the source, which are not always exact repeats. Equal entries are not always repeated.
# How the values were obtained:
# Mouse plasma stability = format: in vitro ADME; details: for mouse plasma t1/2: 3 μM, 37 °C, 240 min course; for remaining at 4 h, 3 μM / half-life at 3 μM: male, BALB/C, mouse, plasma; for half-life at 3 μM: read-out: in vitro mouse plasma stability t1/2
# Protocol: (§1) Human plasma (lithium heparin (LiHep) mixed, gender pooled, 0.2 μm filtered) and mouse plasma (BALB/C, LiHep mixed, male pooled, 0.2 μm filtered) were purchased from BioIVT. Procaine (Sigma-Aldrich) served as a positive control for both human and mouse plasma experiments. […] Next, the human or mouse plasma (994 μL) was aliquoted into 1.5 mL Eppendorf tubes with duplicates (reactions A and B) being prepared for each compound. The plasma was then incubated at 37 °C for 10 min. […] This procedure provided duplicate experiments with a final volume of 1000 μL (<0.2% organic solvent content) and a final test compound concentration of 3 μM. Aliquots (100 μL) were removed from each reaction mixture at 0, 30, 60, 120, and 240 min time intervals and quenched with 150 μL of cold ISTD solution (2 μM 7-ethoxy-d5-coumarin in MeOH). […] The positive control reaction was conducted at a final volume of 1000 μL for a single run of each time point. Finally, the negative control experiment was conducted with test compounds in Dulbecco’s phosphate buffered saline without calcium and magnesium (DPBS, Fisher Scientific, 143 μL) and analyzed at the 240 min time point.
# (§2) Plasma Stability Assay Setup Example
# (§3) Test Compound: 994 µL Human or Mouse Plasma + 6.0 µL TC (500 µM, Vial A).
# (§4) 994 µL Human or Mouse Plasma + 6.0 µL TC (500 µM, Vial B).
# (§5) Positive Control: 994 µL Human or Mouse Plasma + 6.0 µL Procaine (500 µM).
# (§6) Negative Control: 142 µL DPBS (1X, pH 7.1-7.3) + 0.9 µL TC (500 µM).
# (§7) Quenching Mixture: 150 µL MeOH with ISTD (2 µM d5-7-ethoxycoumarin).
# (§8) Final Volume After Quenching: 250 µL (100 µL from reaction mixture and 150 µL quencher
# solution; ISTD final concentration of 1.2 µM). […]
# Human plasma stability = format: in vitro ADME; details: for remaining at 4 h, 3 μM / half-life at 3 μM: both sexes, human, plasma; for half-life at 3 μM: 37 °C, 240 min course, read-out: human plasma t1/2
# Protocol: as §1, §2, §3, §4, §5, §6, §7, §8
# solution; ISTD final concentration of 1.2 µM).
# Human Plasma Stability of Compound 2a at 37 °C
# Figure S29. In vitro human plasma stability of 2a (5 points over 240 min) with procaine serving
# [1] = HepaRG cellular metabolic stability; details: human, other cell line; for hepatocyte CLint at 20 μM: HepaRG Clint,u, calculated from cellular t1/2; for half-life at 20 μM: HepaRG t1/2, after 3 h loading at 20 μM, 37 °C
# Excerpt: (§9) Naturally, due the metabolic complexity of HepaRG cells, we specifically analyzed prodrug cellular uptake and stability, as represented by Cmax and intrinsic clearance (Clint,u) accordingly (Figure 7 and Table 9).
# (§10) The HepaRG cell line (HPRGC10, Thermo Fisher Scientific) was used to evaluate the cellular permeability and metabolic stability for select final compounds in vitro. The cells were initially thawed with working media composed of HepaRG Thaw, Plate, & General Purpose Medium Supplement (HPRG670), Williams Medium E (100 mL), and GlutaMax (1 mL), all purchased from Thermo Fisher Scientific. […] After the thawing medium was aspirated from each well, the cells were cultured for an additional 6 days with working media consisting of HepaRG Maintenance/Metabolism Medium Supplement (HPRG720), Williams Medium E (500 mL), and GlutaMax (1 mL), all purchased from Thermo Fisher Scientific. Upon completing the 7-day culture period, HepaRG cells were plated in enough wells to allow for duplicate analysis of prodrugs in two independent cellular uptake or metabolic stability experiments. All studied compounds were formulated with human serum albumin (HSA, 5:1 compound to HSA molar ratio) and subsequently diluted to a 20 μM final concentration with assay medium composed of serum-free INVITROGRO HI Medium and TORPEDO Antibiotic Mix purchased from BioIVT. For cellular uptake determinations, the maintenance/metabolism medium was first aspirated from each well, and then the plated cells were spiked with 1.0 mL of test compound stock solution. Subsequently, the plate was incubated at 37 °C under 5% CO2 environment over the desired time course (seven data points/compound). Blank wells not treated with prodrug were included in assay runs as controls and initial time points (0 min). At each time point, the test compound solution was removed from the appropriate wells, and the plated cells were washed with 1.0 mL of DPBS twice. The HepaRG cells were then extracted with 500 μL of cold ISTD solution (1 μM 7-ethoxy-d5-coumarin in 70/30 MeOH/H2O), and the quenched aliquots were centrifuged at 15,000 g for 10 min at 4 °C. […] After obtaining prodrug Cmax and Tmax values from the cellular uptake assay, HepaRG metabolic stability was then assessed. Following the initial 7-day culture procedure, the maintenance/metabolism medium was aspirated from each well, and the plated cells were spiked with 1.0 mL of test compound stock solution. […] The test compound solution was then removed from each well and replaced with untreated dilution medium (i.e., serum-free INVITROGRO HI Medium and TORPEDO Antibiotic Mix), initializing the stability determination. The HepaRG plate was once more incubated at 37 °C under 5% CO2 atmosphere over the desired time course (nine data points/compound), and sample preparation and analysis were handled in identical fashion to cellular uptake experiments.
# [2] = Mouse plasma pharmacokinetics after intravenous dose; format: in vivo, male C57BL/6 mice; details: i.v. 3 mg/kg; for k (terminal elimination rate constant): 3 mg/kg; for concentration at 0.1 h / concentration at 0.25 h / concentration at 0.5 h / concentration at 1 h / concentration at 2 h / concentration at 4 h / concentration at 6 h / concentration at 8 h: read-out: mean prodrug concentration in plasma; for Cmax at 8 h / Tmax at 8 h / AUC(0-t) at 8 h: prodrug; for AUC(0-t) at 8 h: read-out: AUC0–8h
# Protocol: To compare the in vivo PK profiles to TXL and our previously reported drug lead 1 (Tables S19 and S26),[39] one group of male C57BL/6 mice were administered a single oral dose (p.o., 10 mg/kg) of 2a, 16g, or 16h (refer to Experimental Methods). Additionally, a separate group of mice were given a single intravenous dose (i.v., 3 mg/kg) of each prodrug to obtain plasma clearance (Cl), volume of distribution (Vd), and oral bioavailability data. Blood was sampled at 8 time points over 8 h (i.v.) or 24 h (p.o.) postdose, and plasma was isolated via centrifugation. Tissues (liver, kidney, and brain) were also harvested and homogenized at 3 time points over 24 h after oral dose. The concentrations of prodrug and TFV metabolite in each of these samples was then quantified using LC–MS/MS methodology.
# Healthy male C57BL/6 mice (8–12 weeks old) weighing 20–30 g were procured from Global, India. Three mice were housed in each cage. Temperature and humidity were maintained at 22 ± 3 °C and 30–70%, respectively, and illumination was controlled to provide for 12 h light and 12 h dark cycles. Temperature and humidity were recorded by an autocontrolled data logger system. All animals were provided a laboratory rodent diet (Envigo Research private Ltd., Hyderabad). Reverse osmosis H2O treated with ultraviolet light was provided ad libitum.
# Male mice were divided into two groups (n = 18 total, n = 9 per treatment group, n = 3 per time point, sparse sampling). One group was intravenously administered a solution of 2a, 16g, and 16h in 10% PEG-300, 10% Solutol HS-15, and 80% saline at 3 mg/kg with a dosing volume of 5 mL/kg. The second group was administered a solution of 2a, 16g, and 16h in 10% EtOH and 90% olive oil at 10 mg/kg via oral gavage with a dosing volume of 10 mL/kg.
# Blood samples (approximately 60 μL) were collected from retro-orbital plexus under light isoflurane anesthesia such that the samples were obtained predose, as well as at eight time points post dose: 0.1, 0.25, 0.5, 1, 2, 4, 6, and 8 (i.v.) and 0.25, 0.5, 1, 2, 4, 8, 12, and 24 h (p.o.). Immediately after blood collection, plasma samples were harvested by centrifugation at 4000 rpm and 4 °C for 10 min and stored at −70 °C until LC–MS/MS analysis. Following blood collection from p.o. group, liver, kidney, and brain samples were collected (n = 3 per treatment group per time point) at 1, 4, and 24 h post dose. After isolation, tissue samples were rinsed three times with ice-cold saline and dried with blotting paper. Next, the tissue samples were homogenized using ice-cold PBS (pH = 7.4), and the resulting homogenates were stored below −70 °C until LC-MS/MS analysis. The total homogenate volume was 3 times the brain weight and 5 times the liver and kidney weight.
# Areas under the concentration–time curves (AUC0–8h and AUC0–24h) were calculated via the linear trapezoidal rule[65] using GraphPad Prism v9. Furthermore, terminal elimination rate constants k were determined using linear regression (slope = −k) of the terminal portion of semilog-transformed concentration–time curves (Figures S44, S45, S47, S48, S50, and S51).
# [3] = Cellular cytotoxicity (cell viability, CellTiter 96 or resazurin); details: human, CC50, HEK293T cells, compounds formulated with HSA (5:1)
# Protocol: Second, HIV IC50 and cellular CC50 were determined with a pseudoviral, whole (HEK293T) cell, nonreplicative HIV assay, using the HIV-1 subtype C strain MJ4 (refer to Experimental Methods). To account for the unique amphiphilic properties of TXL and the novel HTP-based prodrugs, all compounds were formulated in a human serum albumin (HSA) solution (5:1 drug:protein).
# Assessment of cytotoxicity and antiviral activity of all final compounds in vitro was conducted according to previously reported procedures.[39] In summary, human embryonic kidney (HEK293T) cells maintained in high glucose (25 mM), Dulbecco’s modified Eagle’s medium (DMEM) supplemented with fetal bovine serum (10%), sodium pyruvate (1 mM), L-glutamine (2 mM), HEPES (25 mM), and gentamicin (50 μg/mL) were used for determinations. The cells were maintained in an incubator at 37 °C under 5% CO2 in a humidified atmosphere. For both cytotoxicity and antiviral screening, all compounds were evaluated in duplicate in at least two independent experiments. All final compounds were formulated with human serum albumin (HSA, 5:1 compound to HSA molar ratio) and subsequently diluted with complete DMEM to 200 μM. Fifty microliters of test compound serial dilutions (3-fold) were prepared in 96-well culture plates, after which 50 μL of HEK293T cells (2 × 10^4 cells/well) was added. […] Cytotoxicity was then assessed by quantifying cell viability using the CellTiter 96 Aqueous One Solution Cell Proliferation Assay (Promega, Madison, WI) or resazurin sodium salt (cat# R7017, Merck, Darmstadt, Germany).[61] […] Antiviral activity was then assessed using a single-cycle, nonreplicating, envelope deleted HIV pseudoviral in vitro assay.[62],[63] The assay relies on the introduction of the firefly luciferase gene into HEK293T cells through infection with HIV-like viral particles, containing Reverse Transcriptase (RT) and Integrase (IN) from the HIV-1 subtype C strain MJ4.[64] The expression of the luciferase in the cells is directly proportional to the level of infection by the HIV-like viral particles and can be used to assess the inhibition of HIV-1 RT and IN. To evaluate anti-HIV activity, 3-fold serial dilutions of all final compounds were prepared in 50 μL over the noncytotoxic concentration range (as determined from the cytotoxicity screens described above) in 96-well culture plates. HEK293T cells (2 × 10^4 cells/well) and HIV-like viral particles, standardized to produce a luminescence signal of 1 × 10^6 relative light units (RLUs) in the growth medium only control, were combined, and 50 μL was added to the wells containing serially diluted test compounds. […] The expression of luciferase was subsequently quantified by adding 100 μL of the Bright-Glo Luciferase Assay substrate (Promega, Madison, WI) to each well of the 96-well plates. After incubation at rt for 3 min, luminescence was quantified on the GloMax Explorer Multimode Microplate Reader (Promega, Madison, WI).
# HepaRG cells = assay: HepaRG cellular uptake; details: for mean prodrug concentration in HepaRG cells: 20 µM; for HepaRG Cmax: 20 μM, HSA formulation 5:1, recorded after 3 h incubation
# Excerpt: as §9, §10
# HepaRG cellular uptake = details: human, HepaRG Cmax, 20 μM, HSA formulation 5:1, recorded after 3 h incubation
# Excerpt: as §9, §10
# [4] = relative percent remaining at 240 min
Structure (SMILES),mouse plasma t1/2 (Mouse plasma stability) [h],"remaining at 4 h, 3 μM (Mouse plasma stability; [4]) [%]",half-life at 3 μM (Mouse plasma stability) [h],"remaining at 4 h, 3 μM (Human plasma stability; [4]) [%]",half-life at 3 μM (Human plasma stability) [h],hepatocyte CLint at 20 μM [1] [µL/min/1e6 cells],half-life at 20 μM [1] [h],k (terminal elimination rate constant) [2],"Vd at 8 h ([2]; male, C57BL/6, mouse, iv) [L/kg]","clearance ([2]; male, C57BL/6, mouse, iv) [mL/min/kg]","concentration at 0.1 h ([2]; male, C57BL/6, mouse, iv) [ng/mL]","concentration at 0.25 h ([2]; male, C57BL/6, mouse, iv) [ng/mL]","concentration at 0.5 h ([2]; male, C57BL/6, mouse, iv) [ng/mL]","concentration at 1 h ([2]; male, C57BL/6, mouse, iv) [ng/mL]","concentration at 2 h ([2]; male, C57BL/6, mouse, iv) [ng/mL]","concentration at 4 h ([2]; male, C57BL/6, mouse, iv) [ng/mL]","concentration at 6 h ([2]; male, C57BL/6, mouse, iv) [ng/mL]","concentration at 8 h ([2]; male, C57BL/6, mouse, iv) [ng/mL]","Cmax at 8 h ([2]; male, C57BL/6, mouse, iv) [ng/mL]","Tmax at 8 h ([2]; male, C57BL/6, mouse, iv) [min]",also measured
CCCCCCCCCCCCCCCCSCCCOP(=O)(O)CO[C@H](C)Cn1cnc2c(N)ncnc21.N [2a],> 4,95,> 4,95,> 4,14.1,1.49 ± 0.00667,0.4666 and 0.467,18.9,147,2060,320,134,57.1,8.68,3.75,3.41,1.21,2060,6,"mouse plasma % remaining (Mouse plasma stability; [4]): > 95%; human plasma % remaining (Human plasma stability; [4]): > 95%; half-life ([2]; male, C57BL/6, mouse, iv): 1.49 h; AUC(0-t) at 8 h ([2]; male, C57BL/6, mouse, iv): 340 ng·h/mL; CC50 at 48 h [3]: 50 µM; mean prodrug concentration in HepaRG cells (HepaRG cells; 0.5 h): 467.27 ng/mL; mean prodrug concentration in HepaRG cells (HepaRG cells; 1 h): 530.17 ng/mL; mean prodrug concentration in HepaRG cells (HepaRG cells; 2 h): 676.9 ng/mL; mean prodrug concentration in HepaRG cells (HepaRG cells; 3 h): 827.97 ng/mL; mean prodrug concentration in HepaRG cells (HepaRG cells; 5 h): 1004.64 ng/mL; mean prodrug concentration in HepaRG cells (HepaRG cells; 7 h): 994.36 ng/mL; Cmax at 3 h, 20 μM (HepaRG cellular uptake): 828 ± 0.2 ng/mL"
C[C@H](Cn1cnc2c(N)ncnc21)OCP(=O)(O)OCCCSCCCCCCCCCCCCc1ccc(F)cc1.N [16g],> 4,> 95,> 4,> 95,> 4,27,0.783,0.4057 and 0.406,19.9,134,863,315,227,71.5,21.6,12.1,7.5,3.12,863,6,"half-life at 8 h ([2]; male, C57BL/6, mouse, iv): 1.71 h; AUC(0-t) at 8 h ([2]; male, C57BL/6, mouse, iv): 373 ng·h/mL; CC50 at 48 h [3]: > 100 µM; mean prodrug concentration in HepaRG cells (HepaRG cells; 0.5 h): 124.04 ng/mL; mean prodrug concentration in HepaRG cells (HepaRG cells; 1 h): 162.75 ng/mL; mean prodrug concentration in HepaRG cells (HepaRG cells; 2 h): 178.18 ng/mL; mean prodrug concentration in HepaRG cells (HepaRG cells; 3 h): 209.81 ng/mL; mean prodrug concentration in HepaRG cells (HepaRG cells; 5 h): 203.98 ng/mL; mean prodrug concentration in HepaRG cells (HepaRG cells; 7 h): 229.08 ng/mL; HepaRG Cmax (HepaRG cells): 209.8 ± 0.2 ng/mL; Cmax at 3 h, 20 μM (HepaRG cellular uptake): 210 ng/mL"
C[C@H](Cn1cnc2c(N)ncnc21)OCP(=O)(O)OCCCSCCCCCCCCCCCCC1CCCCC1.N [16h],> 4,71,> 4,> 95,> 4,18 to 19,1.12 to 1.18,0.5743 and 0.574,8.97,85.8,2380,522,406,127,17.4,8.98,3.65,1.41,2380,6,"half-life at 8 h ([2]; male, C57BL/6, mouse, iv): 1.21 h; AUC(0-t) at 8 h ([2]; male, C57BL/6, mouse, iv): 583 ng·h/mL; CC50 at 48 h [3]: 48 µM; mean prodrug concentration in HepaRG cells (HepaRG cells; 0.5 h): 896.16 ng/mL; mean prodrug concentration in HepaRG cells (HepaRG cells; 1 h): 911.53 ng/mL; mean prodrug concentration in HepaRG cells (HepaRG cells; 2 h): 1178.12 ng/mL; mean prodrug concentration in HepaRG cells (HepaRG cells; 3 h): 1412.37 ng/mL; mean prodrug concentration in HepaRG cells (HepaRG cells; 5 h): 1533.37 ng/mL; mean prodrug concentration in HepaRG cells (HepaRG cells; 7 h): 1616.17 ng/mL; HepaRG Cmax (HepaRG cells): 1412.4 ± 1.5 ng/mL; Cmax at 3 h, 20 μM (HepaRG cellular uptake): 1410 ng/mL"
